Experimental data as given in patent US6407136B1, “1,4-dithiin and 1,4-dithiepin-1,1,4,4, tetroxide derivatives useful as antagonists of the human galanin receptor” (Ortho-McNeil Pharmaceutical, Inc., priority 1999, dated 2002).
Read-outs that look alike come from different tables or passages of the source.

Columns and labels:
[1] = biological target: T1, hGALR-1 contained in membranes from human Bowes melanoma cells (Homo sapiens, UniProt P47211); experiment: Human Galanin-1 Receptor Binding Assay (SPA, 125I human galanin); conditions: inhibition of 125I human galanin binding
T1 construct: hGALR-1 that is contained in membranes from human Bowes melanoma cells; endogenous in cells; host or cells: human Bowes melanoma cells (membranes)
T1 sequence (P47211 1-349): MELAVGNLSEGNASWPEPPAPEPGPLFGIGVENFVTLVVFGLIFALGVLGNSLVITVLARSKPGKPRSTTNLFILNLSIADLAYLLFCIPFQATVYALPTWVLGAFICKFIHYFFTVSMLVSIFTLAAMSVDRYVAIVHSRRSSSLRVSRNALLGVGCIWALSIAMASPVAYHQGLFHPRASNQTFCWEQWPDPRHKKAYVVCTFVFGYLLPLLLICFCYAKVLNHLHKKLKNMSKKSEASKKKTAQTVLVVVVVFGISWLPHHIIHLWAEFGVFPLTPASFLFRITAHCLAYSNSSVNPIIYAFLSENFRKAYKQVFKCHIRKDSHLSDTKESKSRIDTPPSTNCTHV
Description: Human Galanin-1 Receptor Binding Assay
This assay determines the concentration (IC50) of a test compound which prevents 50% of galanin from binding to the hGALR-1 that is contained in membranes from human Bowes melanoma cells bound to wheat germ agglutinin conjugated Scintillation Proximity Assay (SPA) beads. The IC50 value is obtained by measuring the effect of half log increment dilutions of the test compound in duplicate using a 96-well plate (eight-rows, 12-columns).
The SPA beads (500 mg) were dissolved in 12.5 mL of assay buffer composed of 20 mM DMSO-HEPES (pH 7.4), 0.1% bovine serum albumin, 2 mM MgCl2, 2 mM CaCl2, and protease inhibitors. Enough of this suspension for five plates (25 μL×5×96 wells=12000 μL) was dispensed into a 50 mL sterile Falcon tube. The amount of membranes required for five plates was then added (50 μg×5×96 wells), followed by 32.5 mL of 30% DMSO-HEPES buffer. The mixture was placed on a rotator and agitated for 0.5 hours and the non-specific binding sites on the beads were blocked by the addition of 5% [final] fetal bovine serum. Each well of the 96-well plate received 100 μL of this mixture.
To the control column (column 12) rows A and B was added 3.75 μL of a 300 μM solution of galantide in 30% DMSO-HEPES buffer, to rows C and D was added 3.75 μL of 30% DMSO-HEPES buffer and to rows E and F was added 3.75 μL of a 300 μM solution of galanin in 30% DMSO-HEPES buffer. In columns 1 through 11 were added solutions of the test compound in 30% DMSO-HEPES buffer starting at 30 μM and decreasing in concentration in half-log dilutions. A solution of radioactive ^125I human galanin (46.25 μL), prepared from 25 micro Curies of ^125I human galanin (2000 ci/mmol) and 500 μL of assay buffer, was added to each well. The plate was sealed with adhesive paper and incubated for 16 hr at room temperature before the quench-corrected bound radioactivity was measured in a Topcount® apparatus. For each dilution, the % inhibition of galanin binding was calculated as follows:
Total binding (T)=Mean counts/minute (cpm) in row C and D in column 12 Non-specific binding (NSB)=Mean cpm in row E and F in column 12 Total specific binding (TS)=T−NSB
net cpm in each well (N)=C−NSB
The IC50 values for each compound were calculated from the non-linear regression curve of the data using Prism® graphics software.

Rat Galanin-1 Receptor = biological target: T2, Rat Galanin-1 Receptor (Rattus norvegicus, UniProt Q62805); experiment: Rat Galanin-1 Receptor Mediated Inhibition of Acetylcholine Release from Rat Brain Cortical Slices (superfusion); conditions: for Acetycholine Secretion, Stimulated / Acetycholine Secretion, Stimulated (% change): K+-evoked; for Acetycholine Secretion, Stimulated (% change) / Acetycholine Secretion, Basal (% change): percent in brackets, versus control
T2 sequence (Q62805 1-346): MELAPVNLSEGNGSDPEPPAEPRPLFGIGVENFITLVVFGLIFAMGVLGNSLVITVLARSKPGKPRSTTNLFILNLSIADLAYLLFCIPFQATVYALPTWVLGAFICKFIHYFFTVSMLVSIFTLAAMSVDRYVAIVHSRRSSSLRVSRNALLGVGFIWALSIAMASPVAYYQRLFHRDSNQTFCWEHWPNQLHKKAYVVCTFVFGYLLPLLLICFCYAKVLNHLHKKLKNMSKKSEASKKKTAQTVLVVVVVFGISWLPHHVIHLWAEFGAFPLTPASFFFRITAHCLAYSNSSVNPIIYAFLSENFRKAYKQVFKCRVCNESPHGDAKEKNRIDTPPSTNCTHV
Description: Rat brain cerebrocortical tissues were chopped into slices of 300×300×3,000 mm using a Mcllwain tissue chopper. […] After incubation, the slices were washed three times with ice-cold physiological solution and resuspended in 6 ml of cold solution. Equal aliquots of the tissue suspension were placed in each of 6 parallel superfusion chambers (Hugo Sachs Elektronik, March-Hugstetten, Germany). A circular piece of nylon mesh (pore size 250 um) was placed just below each chamber outlet in order to prevent the loss of tissue. The chambers were perfused against gravity with oxygenated Krebs-Ringer containing 1 mM physostigmine hemisulfate at a flow rate of 1 ml/min. […] The onset of superfusion was defined as time zero (t0). Starting at 30 min after t0, 10 min fractions of the effluent were collected.
Release of [^3H]acetylcholine was induced by superfusing tissues for 30 sec with 65 mM K^+-Krebs-Ringer solution (made by isomolar replacement of NaCl with KCl). Four potassium pulses were given respectively at 40 min (S1), 70 min (S2), 100 min (S3) and 130 min (S4) after t0. […] To permit construction of concentration-effect curves, concentrations of agents were increased 10 fold between each stimulus.
Following perfusion, the tissue was homogenized in 1 ml ethanol and aliquots of superfusates (0.4 ml) and tissue homogenates (0.04 ml) were added to 5 ml of Scintsafe PlusTM 50% (Fisher Scientific, Pittsburgh, Pa.) and radioactivity counted by liquid scintillation spectrometry. The total ^3H content in this procedure consisted mainly of [^3H]acetylcholine.
Tritium (^3H) efflux into the superfusate was calculated as the fraction of tritium content in the slices or synaptosomes at the onset of the respective collection period. For calculation of the stimulated tritium overflow, the estimated basal efflux (the average of the 10 min fractions immediately before and after each stimulation) was subtracted from the total tritium efflux during the 10 min fraction which began with the 30 sec K^+ pulse. This difference was then used to calculate the percent of K^+-evoked release of acetylcholine.
In order to quantify the in vitro effect of a drug on stimulated tritium outflow, the ratio of the fraction released by a given pulse, Sn, to that evoked by S1, was determined. Data presented below are expressed as the mean fractional tritium release ±S.E.M. Statistical differences between treatments were tested by the two-tailed Student's t test or the two factor ANOVA as appropriate. Individual differences in the dose-response curve was evaluated by the Newman-Keul multiple comparison.

[2] = Table II, formula (II) compounds, read-out: hGAL IC50
[3] = 10 μM + GAL, mean fractional tritium release

| Compound | IC50 [1, 2] | Acetycholine Secretion, Stimulated (% change) (Rat Galanin-1 Receptor; 1 μM + GAL) | Acetycholine Secretion, Basal (% change) (Rat Galanin-1 Receptor; 1 μM + GAL) | Acetycholine Secretion, Basal (% change) (Rat Galanin-1 Receptor; 10 μM + GAL) | also measured |
| --- | --- | --- | --- | --- | --- |
| O=S1(=O)C=C(c2ccc(Br)cc2)S(=O)(=O)CC1 [Cmpd 2] |  |  |  |  | IC50 ([1]; Table I, formula (I) compounds, read-out: HGAL IC50): 1000 nM |
| COc1cccc(C2=CS(=O)(=O)CCCS2(=O)=O)c1 [Cmpd 15] | 1100 nM |  |  |  |  |
| O=S1(=O)C=C(c2cccc(F)c2)S(=O)(=O)CCC1 [Cmpd 16] | 1300 nM | −23.9% | −38.9% | −37% | Acetycholine Secretion, Stimulated (Rat Galanin-1 Receptor; 1 μM + GAL, mean fractional tritium release): 6.31; Acetycholine Secretion, Stimulated (Rat Galanin-1 Receptor; [3]): 8.27; Acetycholine Secretion, Basal (Rat Galanin-1 Receptor; [3]): 2.28 |
| O=S1(=O)C=C(c2ccc(I)cc2)S(=O)(=O)CCC1 [Cmpd 17] |  | −35.2% | −39.2% | −37% | Acetycholine Secretion, Stimulated (% change) (Rat Galanin-1 Receptor; 10 μM + GAL): −22.3% |
| O=S1(=O)C=C(c2ccc(Cl)cc2)S(=O)(=O)CCC1 [Cmpd 21] | 1900 nM |  |  |  |  |
